Measured values as given in patent US4404138A, “3-[2-(Azabicyclo) ethyl]-1,2,3,4-tetrahydro-5H-[1]benzopyrano[3,4-c]pyridin-5-ones” (Warner-Lambert Company, priority 1982, dated 1983).
Structures can show the parent of a compound that is named as a salt.

The molecules below were run on Conscious guinea pigs exposed to an aerosol of methacholine (assay: Methacholine aerosol collapse time in conscious guinea pigs (anticholinergic test)). Conditions: 25 mg/kg intraperitoneally; 10 minutes methacholine aerosol; time not given.
Assay type: in vivo
Protocol: Conscious guinea pigs, six at a time, are put into a sealed chamber and exposed for 10 minutes to an aerosol of methacholine.

In the case of `COc1cc2oc(=O)c3c(c2cc1OC)CCN(CCN1CC2CCC(CC2)C1)C3.Cl.Cl` [R1=MeO, R2=MeO, R3=H, X=drawing 10, 3-[2-(3-Azabicyclo[3.2.2]non-3-yl)ethyl]-1,2,3,4-tetrahydro-8,9-dimethoxy-5H-[1]benzopyrano[3,4-c]pyridin-5-one dihydrochloride], the “(Minutes Protection), given in words” value was “Active”.
With `CC(=O)Nc1cc2c3c(c(=O)oc2cc1C)CN(CCN1CC2CCC(CC2)C1)CC3` [R1=NHCOCH3, R2=Me, R3=H, X=drawing 10, N-{3-[2-(3-Azabicyclo[3.2.2]non-3-yl)ethyl]-1,2,3,4-tetrahydro-8-methyl-5-oxo-2H-[1]benzopyrano[3,4-c]pyridin-9-yl}-acetamide] the “(Minutes Protection), given in words” value was “Active”.

Same assay, conditions: collapse time; 25 mg/kg intraperitoneally; 10 minutes methacholine aerosol; Control 1.9 to 2.0

In order of falling “(Minutes Protection)” value:
1. COc1ccc2c3c(c(=O)oc2c1)CN(CCN1CC2CCC1CC2)CC3 [R1=H, R2=MeO, R3=H, X=drawing 11, 3-[2-(2-Azabicyclo[2.2.2]oct-2-yl)ethyl]-1,2,3,4-tetrahydro-8-methoxy-5H-[1]benzopyrano[3,4-c]pyridin-5-one]  10.0 min
2. COc1cc2oc(=O)c3c(c2cc1OC)CCN(CCN1CC2CCC1CC2)C3 [R1=MeO, R2=MeO, R3=H, X=drawing 11, 3-[2-(2-Azabicyclo[2.2.2]oct-2-yl)ethyl]-1,2,3,4-tetrahydro-8,9-dimethoxy-5H-[1]benzopyrano[3,4-c]pyridine-5-one]  7.6 min
3. COc1ccc2c3c(c(=O)oc2c1)CN(CCN1CC2CCCC(C2)C1)CC3 [R1=H, R2=MeO, R3=H, X=drawing 12, 3-[2-(3-Azabicyclo[3.3.1]non-3-yl)ethyl]-1,2,3,4-tetrahydro-8-methoxy-5H-[1]benzopyrano[3,4-c]pyridin-5-one]  7.3 min
4. CCc1ccc2c3c(c(=O)oc2c1)CN(CCN1CC2CCC(CC2)C1)CC3.Cl.Cl [R1=H, R2=Et, R3=H, X=drawing 10, 3-(2-(3-Azabicyclo[3,2,2]non-3-yl)ethyl]-8-ethyl-1,2,3,4-tetrahydro-5H-benzopyrano[3,4-c]pyridin-5-one, dihydrochloride]  6.8 min
5. COc1cc2oc(=O)c3c(c2cc1OC)CCN(CCN1CC2CCCC(C2)C1)C3 [R1=MeO, R2=MeO, R3=H, X=drawing 12, 3-[2-(3-Azabicyclo[3.3.1]non-3-yl)ethyl]-1,2,3,4-tetrahydro-8,9-dimethoxy-5H-[1]benzopyrano[3,4-c]pyridin-5-one]  6.6 min
6. CCOc1cc2oc(=O)c3c(c2cc1OCC)CCN(CCN1CC2CCC(CC2)C1)C3 [R1=EtO, R2=EtO, R3=H, X=drawing 10, 3-[2-(3-Azabicyclo[3.2.2]non-3-yl)ethyl]-1,2,3,4-tetrahydro-8,9-diethoxy-5H-[1]benzopyrano[3,4-c]pyridin-5-one]  6.3 min
7. CC(C)c1ccc2c3c(c(=O)oc2c1)CN(CCN1CC2CCC(CC2)C1)CC3.Cl.Cl [R1=H, R2=CHMe2, R3=H, X=drawing 10, 3-[2-(3-Azabicyclo[3.2.2]non-3-yl)ethyl]-1,2,3,4-tetrahydro-8-(1-methylethyl)-5H-[1]benzopyrano[3,4-c]pyridin-5-one dihydrochloride]  6.2 min
8. O=c1oc2cc(O)ccc2c2c1CN(CCN1CC3CCC(CC3)C1)CC2 [R1=H, R2=OH, R3=H, X=drawing 10]  6.1 min
9. COc1ccc2c3c(c(=O)oc2c1)CN(CCN1CC2CCC(CC2)C1)CC3.Cl.Cl [R1=H, R2=MeO, R3=H, X=drawing 10, 3-[2-(3-Azabicyclo[3.2.2]non-3-yl)ethyl]-1,2,3,4-tetrahydro-8-methoxy-5H-[1]benzopyrano[3,4-c]pyridin-5-one, dihydrochloride]  6.0 min
10. O=c1oc2ccccc2c2c1CN(CCN1CC3CCC(CC3)C1)CC2 [R1=H, R2=H, R3=H, X=drawing 10, 3-[2-(3-Azabicyclo[3.2.2]non-3-yl)ethyl]-1,2,3,4-tetrahydro-5H-[1]benzopyrano[3,4-c]pyridin-5-one]  5.2 min
11. Cc1cc2oc(=O)c3c(c2cc1C)CCN(CCN1CC2CCC(CC2)C1)C3 [R1=Me, R2=Me, R3=H, X=drawing 10, 3-[2-(3-Azabicyclo[3.2.2]non-3-yl)ethyl]-1,2,3,4-tetrahydro-8,9-dimethyl-5H-[1]benzopyrano[3,4-c]pyridin-5-one]  5.1 min
12. Cc1ccc2c3c(c(=O)oc2c1)CN(CCN1CC2CCC(CC2)C1)CC3 [R1=H, R2=Me, R3=H, X=drawing 10, 3-[2-(3-Azabicyclo[3.2.2]non-3-yl)ethyl]-1,2,3,4-tetrahydro-8-methyl-5H-[1]benzopyrano[3,4-c]pyridin-5-one]  5.0 min
13. Cc1cc2oc(=O)c3c(c2cc1NC(=O)c1ccccc1)CCN(CCN1CC2CCC(CC2)C1)C3 [R1=NHCOPh, R2=Me, R3=H, X=drawing 10, N-{3-[2-(3-Azabicyclo[3.2.2]non-3-yl)ethyl]-1,3,4,5-tetrahydro-8-methyl-5-oxo-2H-[1]benzopyrano[3,4-c]pyridin-9-yl}-benzamide]  3.8 min
14. CC(C)(C)c1ccc2c3c(c(=O)oc2c1)CN(CCN1CC2CCC(CC2)C1)CC3.Cl.Cl [R1=H, R2=CMe3, R3=H, X=drawing 10, 3-[2-(3-Azabicyclo[3.2.2]non-3-yl)ethyl]-8-(1,1-dimethylethyl)-1,2,3,4-tetrahydro-5H-[1]benzopyrano[3,4-c]pyridin-5-one, dihydrochloride]  3.4 min
15. O=c1oc2ccccc2c2c1CN(CCN1CC3CCCC(C3)C1)CC2 [R1=H, R2=H, R3=H, X=drawing 12, 3-[2-(3-Azabicyclo[3.3.1]non-3-yl)ethyl]-1,2,3,4-tetrahydro-5H-[1]benzopyrano[3,4-c]pyridin-5-one]  3.3 min
16. Cc1ccc2c3c(c(=O)oc2c1)CN(CCN1CC2CCCC(C2)C1)CC3 [R1=H, R2=Me, R3=H, X=drawing 12, 3-[2-(3-Azabicyclo[3.3.1]non-3-yl)ethyl]-1,2,3,4-tetrahydro-8-methyl-5H-[1]benzopyrano[3,4-c]pyridin-5-one]  3.1 min
17. COc1ccc2c3c(c(=O)oc2c1OC)CN(CCN1CC2CCC(CC2)C1)CC3.Cl.Cl [R1=H, R2=MeO, R3=MeO, X=drawing 10, 3-[2-(3-Azabicyclo[3.2.2]non-3-yl)ethyl]-1,2,3,4-tetrahydro-7,8-dimethoxy-5H-[1]benzopyrano[3,4-c]pyridin-5-one dihydrochloride]  3.0 min
18. O=c1oc2c(ccc3ccccc32)c2c1CN(CCN1CC3CCC(CC3)C1)CC2 [R1=H, R2+R3=CH CHCHCH, X=drawing 10, 2-[2-(3-Azabicyclo[3.2.2]non-3-yl)ethyl]-1,2,3,4-tetrahydro-12H-naphtho[2',1',:5,6]pyrano[3,4-c]pyridin-12-one dihydrochloride]  2.7 min
19. Cc1cc2oc(=O)c3c(c2cc1Cl)CCN(CCN1CC2CCCC(C2)C1)C3 [R1=Cl, R2=Me, R3=H, X=drawing 12]  2.6 min
20. O=c1oc2cc3c(cc2c2c1CN(CCN1CC4CCC(CC4)C1)CC2)OCO3 [R1+R2=OCH2O, R3=H, X=drawing 10, 3-[2-(3-Azabicyclo[3.2.2]non-3-yl)ethyl]-1,2,3,4-tetrahydro-5H-[1,3]benzodioxolo[5',6':5,6]pyrano[3,4-c]pyridin-5-one]  2.3 min
21. Cc1ccc2c3c(c(=O)oc2c1)CN(CCN1CC2CCC1CC2)CC3 [R1=H, R2=Me, R3=H, X=drawing 11, 3-[2-(2-Azabicyclo[2.2.2]oct-2-yl)ethyl]-1,2,3,4-tetrahydro-8-methyl-5H-[1]benzopyrano[3,4-c]pyridin-5-one]  2.3 min
22. Cc1cc2oc(=O)c3c(c2cc1Cl)CCN(CCN1CC2CCC(CC2)C1)C3 [R1=Cl, R2=Me, R3=H, X=drawing 10, 3-[2-(3-Azabicyclo[3.2.2]non-3-yl)ethyl]-9-chloro-1,2,3,4-tetrahydro-8-methyl-5H-[1]benzopyrano[3,4-c]pyridin-5-one]  2.1 min
23. Cl.Cl.O=c1oc2cc(-c3ccccc3)ccc2c2c1CN(CCN1CC3CCC(CC3)C1)CC2 [R1=H, R2=Ph, R3=H, X=drawing 10, 3-[2-(3-Azabicyclo[3.2.2]non-3-yl)ethyl]-1,2,3,4-tetrahydro-8-phenyl-5H-[1]benzopyrano[3,4-c]pyridin-5-one, dihydrochloride]  2.1 min
24. Br.Br.O=c1oc2cc(O)c(O)cc2c2c1CN(CCN1CC3CCC(CC3)C1)CC2 [R1=OH, R2=OH, R3=H, X=drawing 10, 3-[2-(3-Azabicyclo[3.2.2]non-3-yl)ethyl]-1,2,3,4-tetrahydro-8,9-dihydroxy-5H-[1]benzopyrano[3,4-c]pyridin-5-one dihydrobromide]  2.1 min
25. Cc1cc2oc(=O)c3c(c2cc1N)CCN(CCN1CC2CCC(CC2)C1)C3 [R1=NH2, R2=Me, R3=H, X=drawing 10, 9-Amino-3-[2-(3-azabicyclo[3.2.2]non-3-yl)ethyl]-1,2,3,4-tetrahydro-8-methyl-5H-[1]benzopyrano[3,4-c]pyridin-5-one]  1.9 min
26. Cc1cc2oc(=O)c3c(c2cc1[N+](=O)[O-])CCN(CCN1CC2CCC(CC2)C1)C3 [R1=NO2, R2=Me, R3=H, X=drawing 10, 3-[2-(3-Azabicyclo[3.2.2]non-3-yl)ethyl]-1,2,3,4-tetrahydro-8-methyl-9-nitro-5H-[1]benzopyrano[3,4-c]pyridin-5-one]  1.9 min
